Measured values from patent publication US20180014536A1, “AGENT FOR IMPROVING PLANT GROWTH AND METHOD FOR PRODUCING PLANT USING SAME” (FUSO CHEMICAL CO., LTD., priority 2015, published 2018).
Several values for one entry are separate records, joined by “and”; a condition that tells them apart may be missing. Equal entries are not always repeated. Entries after “also recorded” stand apart in the source; their conditions may differ.

Experiments:
[1] = test system: cucumber; experiment: Verification experiment 9: organic acid stress, TTC test; type: in vivo; conditions: cut leaves immersed in 0.4% acetic acid solution for two hours
[2] = test system: racomitrium moss; experiment: Verification experiment 17: high temperature stress, Bryophyta, TTC test; type: in vivo; conditions: samples immersed in tap water of 45° C. for 18 hours
Experimental: As a Bryophyta, racomitrium moss was used, which is a Bryophyta widely used for greening a park, a rooftop, and a garden. Verification experiments for various stresses were conducted thereon. The experiments were conducted in the following procedures. […] Meanwhile, the control sample was sprayed only with water. After the spraying, the racomitrium mosses were cultivated at 25° C. for one day. Then, the samples were subjected to various stresses. Thus, cell activities of the samples were determined by TTC test. […] On such samples, TTC test was conducted.

[3] = test system: cucumber; experiment: Verification experiment 8: low temperature stress, TTC test; type: in vivo; conditions: for TTC test dyeing of leaves (cell activity): remaining plants cultivated two days under fluorescent lamp at 4° C.
[4] = test system: cucumber; experiment: Verification experiment 12: salt stress, TTC test; type: in vivo; conditions: cut leaves immersed in 1.0% saline water for 24 hours
[5] = test system: cucumber; experiment: Verification experiment 11: ultraviolet ray stress, TTC test; type: in vivo; conditions: cut leaves irradiated with ultraviolet ray for 24 hours
[6] = test system: cucumber; experiment: Verification experiment 10: ammonia stress, TTC test; type: in vivo; conditions: cut leaves immersed in 1.0% ammonia solution for three hours
[7] = test system: leaf lettuce; experiment: Verification experiment 13: hydroponics test on leaf lettuce in vinyl greenhouse in summer; type: in vivo
[8] = test system: autumn fern; experiment: Verification experiment 16: ammonia stress, Pteridophyta, TTC test; type: in vivo; conditions: cut leaves immersed in 1.0% ammonia solution for 48 hours
[9] = test system: autumn fern; experiment: Verification experiment 14: high temperature stress, Pteridophyta, TTC test; type: in vivo; conditions: cut leaves immersed in tap water of 45° C. for 18 hours
Experimental: As a Pteridophyta, autumn fern was used, which is a representative Pteridophyta often found in, […] bright forest. Verification experiments for various stresses were conducted thereon. The experiments were conducted in the following procedures. […] Meanwhile, the leaf surfaces of the control sample were sprayed only with water. After the spraying onto the leaf surfaces, the autumn fern seedlings were cultivated at 25° C. for one day. The leaves were cut in a suitable size, and were then subjected to various stresses. Then, cell activities of the samples were determined by TTC test. The leaves that were cut in the suitable size were immersed in tap water of 45° C. for 18 hours. On such leaves, TTC test was conducted.

[10] = test system: cucumber; experiment: Verification experiment 6: dry stress; type: in vivo; conditions: for Weight of each seedling: 3 ml agent added immediately after germination, 18 days cultivation, soil surface kept dry, samples No. 1-9; for Average: average seedling weight after 18 days dry stress; for Weight comparison (%): control = 100.0
Experimental: By use of cucumber, a resistance to dry stress was investigated. 3 ml of Zerumbone was added to cucumber seedlings immediately after germination. The cucumber seedlings were cultivated for 18 days. Meanwhile, another cucumber seedlings were cultivated for 18 days without Zerumbone added thereto. Throughout the cultivation period, a minimum amount of water was given and watering was conducted a minimum number of times so that the soil surface was always kept dry. […] A weight of each of the seedlings was measured. […] Note that, except for the agent, the cultivation conditions used were identical to those of the case where zerumbone was used.

[11] = test system: Japanese mustard spinach; experiment: Verification experiment 1: high temperature stress, hydroponics (first time); type: in vivo; conditions: for effect as agent compared with zerumbone: high temperature stress, hydroponics
Experimental: In order to confirm that the above substances have an efficacy such as alleviation of the various stresses on a plant or promotion of plant growth, some verification experiments were conducted. In each of the verification experiments, solutions of the above substances were used. A concentration thereof was in a range from 0.01 ppm to 10 ppm, in order to exert a sufficient efficacy on a plant. This concentration was appropriately adjusted for each verification experiment. For comparison, similar verification experiments using sanguinarine were conducted. In such a verification experiment for an identical purpose to the above, a concentration of sanguinarine was set to be identical to those of the above substances. A verification experiment for high temperature stress was conducted by use of Japanese mustard spinach. The experiment was conducted in the following procedures. […] Note that the agent used was zerumbone.

[12] = test system: racomitrium moss; experiment: Verification experiment 18: organic acid stress, Bryophyta, TTC test; type: in vivo; conditions: samples immersed in 0.4% acetic acid solution for three hours
[13] = test system: autumn fern; experiment: Verification experiment 15: organic acid stress, Pteridophyta, TTC test; type: in vivo; conditions: cut leaves immersed in 0.4% acetic acid solution for three hours
[14] = test system: racomitrium moss; experiment: Verification experiment 19: ammonia stress, Bryophyta, TTC test; type: in vivo; conditions: samples immersed in 1.0% ammonia solution for 48 hours
[15] = test system: Japanese mustard spinach; experiment: Verification experiment 2: high temperature and low sunshine stress, hydroponics (second time-B)
[16] = test system: Japanese mustard spinach; experiment: Verification experiment 2: high temperature stress, hydroponics, plenty of sunlight (second time-A)
[17] = cut leaves left two days in dark place at 0° C.
[18] = cut leaves left two days in dark place at −10° C.
[19] = leaf lettuce, summer greenhouse hydroponics

| SMILES | cells having an activity (TTC test) [1] | TTC test dyeing (cell activity) [2] | TTC test dyeing (cell activity) [3, 17] | TTC test dyeing (cell activity) [3, 18] | TTC test dyeing of leaves (cell activity) [3] | cells alive (TTC test) [4] | cells having an activity (TTC test) [5] | cells having an activity (TTC test) [6] | TTC test dyeing (cell activity) [8] | TTC test dyeing (cell activity) [9] | Weight of each seedling [10] | Average [10] | Weight comparison (%) [10] | effect as agent compared with zerumbone [11] | TTC test dyeing (cell activity) [12] | TTC test dyeing (cell activity) [13] | TTC test dyeing (cell activity) [14] | other results |
| --- | --- | --- | --- | --- | --- | --- | --- | --- | --- | --- | --- | --- | --- | --- | --- | --- | --- | --- |
| C=C1CC/C=C(\C)CC[C@@H]2[C@@H]1CC2(C)C [β-caryophyllene] | approximately half of the cells | dyed slightly | dyed deeply | dyed slightly | dyed deeply except for their peripheries | most of the cells | approximately half of the cells | a part of the cells | dyed slightly | dyed slightly | 2.89 g and 3.15 g and 3.01 g and 3.13 g and 2.91 g and 3.53 g and 3.11 g and 3.02 g | 3.10 g | 108.8% | effects almost similar to that of zerumbone | dyed slightly | dyed slightly | dyed slightly | Growing speed: Harvest timing ([7]; day on which harvest size reached 150 g to 180 g): 33rd day after day after germination; Disease resistance: Powdery mildew [7, 19]: Not occurred; Disease resistance: Root rot [7, 19]: Not occurred; Physiological disorder (quality): Heterophyll [7, 19]: Not occurred; Physiological disorder (quality): Root spread condition [7, 19]: far better than in the sanguinarine test section; also recorded: Very good; Physiological disorder (quality): Taste [7, 19]: No bitterness; Physiological disorder (quality): Tip burn (dead fringes of leaf) [7, 19]: Not occurred; Physiological disorder (quality): Unproductive growth [7, 19]: Not occurred; occurrence of a disease (overall) [7, 19]: occurrence of a disease was not observed; physiological disorder (overall) [7, 19]: no physiological disorder occurred |
| C[n+]1cc2c3c(ccc2c2ccc4cc5c(cc4c21)OCO5)OCO3 [Sanguinarine, sanguinarine, reference compound] | – | – | – | – | – | – | – | – | – | – | – | – | – | – | – | – | – | growth better than the growth of the control samples ([15]; Table 3 experiment, almost no sunlight): approximately 17%; Growth ratio (%) ([15]; control = 100.0, second time-B): 116.7%; Weight of 10 samples ([15]; dry weight of 10 seedlings, nine days, 30-43 °C, almost no sunlight, second time-B): 1.802 g and 1.873 g; Average ([15]; second time-B): 1.838 g; weights greater than those of the control samples ([16]; Table 2 experiment): approximately 11%; Growth ratio (%) ([16]; control = 100.0, second time-A): 110.7%; Weight of 10 samples ([16]; dry weight of 10 seedlings, nine days, 30-43 °C, plenty of sunlight, second time-A): 1.996 g and 2.027 g and 2.156 g and 2.179 g; Average ([16]; second time-A): 2.090 g; Average ([11]; average weight of 10 samples, first time): 1.574 g; weights greater than those of the control samples ([11]; average weights compared, first time): approximately 3%; Growth ratio (%) ([11]; control = 100.0, first time): 103.2%; Weight of 10 samples ([11]; dry weight of 10 seedlings, leaf spray, nine days culture, maximum temperature 30-43 °C, plenty of sunlight, first time): 1.554 g and 1.538 g and 1.594 g and 1.610 g |
| C/C1=C\CC/C(C)=C/CC(C)(C)/C=C/C1 [α-humulene] | approximately half of the cells | dyed slightly | dyed deeply | dyed slightly | dyed deeply except for their peripheries | most of the cells | approximately half of the cells | a part of the cells | dyed slightly | dyed slightly | 2.69 g and 2.99 g and 3.21 g and 3.07 g and 3.02 g and 2.76 g and 2.65 g and 3.03 g | 2.90 g | 108.5% | effects almost similar to that of zerumbone | dyed slightly | dyed slightly | dyed slightly | Disease resistance: Powdery mildew ([7]; in vivo): Not occurred; Disease resistance: Root rot ([7]; in vivo): Not occurred; Physiological disorder (quality): Heterophyll ([7]; in vivo): Not occurred; Physiological disorder (quality): Root spread condition ([7]; in vivo): far better than in the sanguinarine test section; also recorded: Generally; Physiological disorder (quality): Taste ([7]; in vivo): No bitterness; Physiological disorder (quality): Tip burn (dead fringes of leaf) ([7]; in vivo): Not occurred; Physiological disorder (quality): Unproductive growth ([7]; in vivo): Not occurred; occurrence of a disease (overall) ([7]; in vivo): occurrence of a disease was not observed; physiological disorder (overall) ([7]; in vivo): no physiological disorder occurred |
